Laboratory results taken from patent US20050165085A1, “Polymorphic forms of tegaserod base and salts thereof” (priority 2003, published 2005).
Entries after “also recorded” stand apart in the source; their conditions may differ.

How the values were obtained:
[1] = Heating of tegaserod maleate polymorphic forms, form after heating; format: physicochemical; conditions: for Polymorphic transformation / thermal stability upon heating: statement in text, temperature not given
Source text: X-Ray powder diffraction data were obtained using by method known in the art using a SCINTAG powder X-Ray diffractometer model X'TRA equipped with a solid state detector. Copper radiation of 1.5418 Å was used. A round aluminum sample holder with zero background was used. All peak positions are within ±0.2 degrees two theta.

[2] = Physician's Desk Reference, 57th Ed., cited from earlier work
[3] = Solubility of tegaserod acetate Form J compared with tegaserod base; format: physicochemical; conditions: solvent not stated

## CCCCCNC(=N)N/N=C/c1c[nH]c2ccc(OC)cc12.O=C(O)/C=C\C(=O)O [Form A, Tegaserod maleate, reference compound]
[1]
  Polymorphic transformation / thermal stability upon heating: exhibits thermal stability at higher temperatures

## CCCCCNC(=N)N/N=C/c1c[nH]c2ccc(OC)cc12.O=C(O)/C=C\C(=O)O [Form B1, Tegaserod maleate]
[1]; assumed from DSC curves, all forms show the melting peak of Form A
  Polymorphic transformation upon heating, assumed from DSC curves: transform to Form A upon heating

## CCCCCNC(=N)N/N=C/c1c[nH]c2ccc(OC)cc12.O=C(O)/C=C\C(=O)O [Form B2, Tegaserod maleate]
[1]; 2 hr. at 80 deg.
  Polymorph form after heating: B + C + A
[1]; 2 hr. at 100 deg.
  Polymorph form after heating: B + C + A
[1]; 2 hr. at 120 deg.
  Polymorph form after heating: C + A
[1]; 2 hr. at 140 deg., listed as B2
  Polymorph form after heating: C + A
[1]
  Polymorphic transformation / thermal stability upon heating: transform to Form A upon heating

## CCCCCNC(=N)N/N=C/c1c[nH]c2ccc(OC)cc12.O=C(O)/C=C\C(=O)O [Form B, Tegaserod maleate]
[1]; 2 hr. at 100 deg., listed as B (wet)
  Polymorph form after heating: B > C + A
[1]; 2 hr. at 120 deg., listed as B (wet)
  Polymorph form after heating: A > C
[1]
  Polymorphic transformation / thermal stability upon heating: transform to Form C upon heating before it transforms to Form A
[1]; listed as B
  Polymorphic transformation / thermal stability upon heating: transform to Form A upon heating

## CCCCCNC(=N)N/N=C/c1c[nH]c2ccc(OC)cc12.O=C(O)/C=C\C(=O)O [Form C, Tegaserod maleate]
[1]; 2 hr. at 140 deg., listed as C
  Polymorph form after heating: C > A
[1]; listed as C
  Polymorphic transformation / thermal stability upon heating: transform to Form A upon heating

## CCCCCNC(=N)N/N=C/c1c[nH]c2ccc(OC)cc12.O=C(O)/C=C\C(=O)O [Form D, Tegaserod maleate]
[1]
  Polymorphic transformation / thermal stability upon heating: transformation to Form A; also recorded: transforms to Form A upon heating

## CCCCCNC(=N)N/N=C/c1c[nH]c2ccc(OC)cc12.O=C(O)/C=C\C(=O)O [tegaserod as the maleate salt, Tegaserod maleate]
[2]; ethanol
  Solubility in ethanol: slightly soluble
[2]; water
  Solubility in water: very slightly soluble

## Tegaserod acetate [Tegaserod acetate Form J]
[3]
  Solubility relative to tegaserod base: less soluble than tegaserod base
